Measured values taken from patent publication US5916881A, “High trehalose content syrup” (Kabushiki Kaisha Hayashibara Seibutsu Kagaku Kenkyujo, priority 1996, dated 1999).
Values after ≈ are worked out from the molar mass of the structure shown. “Also recorded” adds a separate entry of the source. Like-named read-outs stand apart in the source and are kept apart here.

Columns and labels:
Format in all cases: physicochemical
[1] = Influence of ambient temperature on the water solubility of trehalose (Experiment 1); details: for solubility thermodynamic: water, 5 °C, saturated solution
Protocol: The water solubility of trehalose at ambient temperature was studied by placing in a glass beaker 10 parts by weight of water and 20 parts by weight of crystalline trehalose hydrate, allowing the solution to stand at 5, 10, 15, 20, 25, 30 or 40° C. while stirring, sampling the solution, filtering the sample, and measuring the trehalose content in the filtrate to determine the solubility of trehalose in 100 g water at each temperature, i.e., the amount (g) of trehalose, d.s.b., that dissolves in 100 g water to give a saturated solution at each temperature.

[2] = Influence of the concentrations of trehalose and of mono-/diglucosyltrehalose on trehalose crystallization (Experiment 3); set-up: key to Formation of trehalose crystal: "+" means that it crystallized; "-" means that it did not; details: for Trehalose crystallization inhibitory effect (in words): summary of Table 3
Protocol: The trehalose crystallization inhibitory effect was experimented by dissolving trehalose under heating conditions in water in an amount of 1.5, 2.0, 2.5, 2.8 or 3.3-times the water solubility at 10° C., dissolving in the solution other oligosaccharides having a trehalose structure within their molecules in an amount of 10, 30 or 60% to the trehalose, d.s.b, and allowing the resultant solution to stand at a relatively-low temperature.
Based on the results in Experiment 1, 1.5, 2.0, 2.5, 2.8 and 3.3-times the water solubility of trehalose in 100 parts by weight of water at 10° C. water corresponded to 83, 111, 138, 155 and 182 parts by weight of trehalose anhydride, d.s.b., respectively With this relationship, testing solutions with the composition as shown in Table 3 were prepared by dissolving under heating conditions in a respective glass beaker 100 parts by weight of water, trehalose in a prescribed part by weight, and either monoglucosyltrehalose, i.e., α-glucosyltrehalose or diglucosyltrehalose, i.e., α-maltosyltrehalose in a prescribed ratio, allowing the solution to stand in a thermostatic place kept at 5, 10 or 15° C. for checking the trehalose crystallization inhibitory effect.

[3] = Trehalose crystallization inhibitory effect of coexisting saccharides in a trehalose syrup over the water solubility (Experiment 2); details: trehalose dissolved in an amount over the water solubility; summary of Table 2
Protocol: Trehalose was dissolved by heating in water in an amount of 1.5-times the water solubility at 10° C., and the trehalose solution was allowed to stand at a relatively-cold place for checking the trehalose crystallization inhibitory effect by saccharides. […] With this relationship, testing solutions were prepared by dissolving by heating in 100 parts by weight of water in a respective glass beaker 83 parts by weight of trehalose, and a saccharide in an amount of 10% to the trehalose, i.e., 8.3 parts by weight of the saccharide selected from the group consisting of glucose, maltose, isomaltose, lactose, maltotriose, panose, maltotetraose, sorbitol, maltitol, maltotriitol, sucrose, raffinose, erlose, saccharides such as α-glucosyltrehalose or monoglucosyltrehalose, α-maltosyltrehalose or diglucosyltrehalose, and α-maltotriosyltrehalose or triglucosyltrehalose as disclosed in Japanese Patent Kokai No.143,876/95 by the present applicant; a saccharide such as α-isomaltosyl-α-glucoside or monoglucosyltrehalose as disclosed in Japanese Patent Kokai No.217,784/96 by the same applicant; and a saccharide such as α-maltosyl-α-maltoside or diglucosyltrehalose as disclosed in Japanese Patent Application No.167,486/94 by the same applicant. Each solution was allowed to stand in a thermostatic place kept at 5, 10 or 15° C. for one week, followed by macroscopically observing the presence of trehalose crystal for evaluating the trehalose crystallization inhibitory effect by the saccharides.

[4] = water 100, trehalose 83, coexisting saccharide 8.3 parts by weight, 5° C. (1.7-times solubility)
[5] = water 100, trehalose 83, coexisting saccharide 8.3 parts by weight, 10° C. (1.5-times solubility)
[6] = water 100, trehalose 83, coexisting saccharide 8.3 parts by weight, 15° C. (1.3-times solubility)
[7] = water 100, trehalose 83, coexisting saccharide 25 parts by weight, 5° C. (1.7-times solubility)
[8] = water 100, trehalose 83, coexisting saccharide 25 parts by weight, 10° C. (1.5-times solubility)
[9] = water 100, trehalose 83, coexisting saccharide 25 parts by weight, 15° C. (1.3-times solubility)
[10] = water 100, trehalose 83, coexisting saccharide 50 parts by weight, 5° C. (1.7-times solubility)
[11] = water 100, trehalose 83, coexisting saccharide 50 parts by weight, 10° C. (1.5-times solubility)
[12] = water 100, trehalose 83, coexisting saccharide 50 parts by weight, 15° C. (1.3-times solubility)
[13] = water 100, trehalose 111, coexisting saccharide 11 parts by weight, 5° C. (2.2-times solubility)
[14] = water 100, trehalose 111, coexisting saccharide 11 parts by weight, 10° C. (2.0-times solubility)
[15] = water 100, trehalose 111, coexisting saccharide 11 parts by weight, 15° C. (1.8-times solubility)
[16] = water 100, trehalose 111, coexisting saccharide 33 parts by weight, 5° C. (2.2-times solubility)
[17] = water 100, trehalose 111, coexisting saccharide 33 parts by weight, 10° C. (2.0-times solubility)
[18] = water 100, trehalose 111, coexisting saccharide 33 parts by weight, 15° C. (1.8-times solubility)
[19] = water 100, trehalose 111, coexisting saccharide 66 parts by weight, 5° C. (2.2-times solubility)
[20] = water 100, trehalose 111, coexisting saccharide 66 parts by weight, 10° C. (2.0-times solubility)
[21] = water 100, trehalose 111, coexisting saccharide 66 parts by weight, 15° C. (1.8-times solubility)
[22] = water 100, trehalose 138, coexisting saccharide 14 parts by weight, 5° C. (2.8-times solubility)
[23] = water 100, trehalose 138, coexisting saccharide 14 parts by weight, 10° C. (2.5-times solubility)
[24] = water 100, trehalose 138, coexisting saccharide 14 parts by weight, 15° C. (2.2-times solubility)
[25] = water 100, trehalose 138, coexisting saccharide 42 parts by weight, 5° C. (2.8-times solubility)
[26] = water 100, trehalose 138, coexisting saccharide 42 parts by weight, 10° C. (2.5-times solubility)
[27] = water 100, trehalose 138, coexisting saccharide 42 parts by weight, 15° C. (2.2-times solubility)
[28] = water 100, trehalose 138, coexisting saccharide 83 parts by weight, 5° C. (2.8-times solubility)
[29] = water 100, trehalose 138, coexisting saccharide 83 parts by weight, 10° C. (2.5-times solubility)
[30] = water 100, trehalose 138, coexisting saccharide 83 parts by weight, 15° C. (2.2-times solubility)
[31] = water 100, trehalose 155, coexisting saccharide 16 parts by weight, 5° C. (3.1-times solubility)
[32] = water 100, trehalose 155, coexisting saccharide 16 parts by weight, 10° C. (2.8-times solubility)
[33] = water 100, trehalose 155, coexisting saccharide 16 parts by weight, 15° C. (2.5-times solubility)
[34] = water 100, trehalose 155, coexisting saccharide 46 parts by weight, 5° C. (3.1-times solubility)
[35] = water 100, trehalose 155, coexisting saccharide 46 parts by weight, 10° C. (2.8-times solubility)
[36] = water 100, trehalose 155, coexisting saccharide 46 parts by weight, 15° C. (2.5-times solubility)
[37] = water 100, trehalose 155, coexisting saccharide 93 parts by weight, 5° C. (3.1-times solubility)
[38] = water 100, trehalose 155, coexisting saccharide 93 parts by weight, 10° C. (2.8-times solubility)
[39] = water 100, trehalose 155, coexisting saccharide 93 parts by weight, 15° C. (2.5-times solubility)
[40] = water 100, trehalose 182, coexisting saccharide 18 parts by weight, 5° C. (3.7-times solubility)
[41] = water 100, trehalose 182, coexisting saccharide 18 parts by weight, 10° C. (3.3-times solubility)
[42] = water 100, trehalose 182, coexisting saccharide 18 parts by weight, 15° C. (3.0-times solubility)
[43] = water 100, trehalose 182, coexisting saccharide 55 parts by weight, 5° C. (3.7-times solubility)
[44] = water 100, trehalose 182, coexisting saccharide 55 parts by weight, 10° C. (3.3-times solubility)
[45] = water 100, trehalose 182, coexisting saccharide 55 parts by weight, 15° C. (3.0-times solubility)
[46] = water 100, trehalose 182, coexisting saccharide 110 parts by weight, 5° C. (3.7-times solubility)
[47] = water 100, trehalose 182, coexisting saccharide 110 parts by weight, 10° C. (3.3-times solubility)
[48] = water 100, trehalose 182, coexisting saccharide 110 parts by weight, 15° C. (3.0-times solubility)

OC[C@H]1O[C@H](O[C@H]2O[C@H](CO)[C@@H](O)[C@H](O)[C@H]2O)[C@H](O)[C@@H](O)[C@@H]1O [Trehalose, α, α-trehalose]
Water solubility (in words) ([1]; ambient temperature, summary of Table 1): relatively-low water solubility | solubility thermodynamic ([1]; d.s.b., read-out: Amount of trehalose (g) dissolving in 100 g water): 496 mg/mL (≈ 1450 mM) | solubility thermodynamic ([1]; read-out: Trehalose concentration (%)): 332 mg/mL (≈ 970 mM)

OC[C@H]1O[C@H](O[C@H]2O[C@H](CO)[C@@H](O[C@H]3O[C@H](CO)[C@@H](O)[C@H](O)[C@H]3O)[C@H](O)[C@H]2O)[C@H](O)[C@@H](O)[C@@H]1O [α-Glycosyltrehalose, α-glucosyltrehalose]
Trehalose crystallization inhibitory effect (in words) [2]: satisfactory trehalose crystallization inhibitory effect | Formation of trehalose crystal [2, 4]: - | Formation of trehalose crystal [2, 5]: - | Formation of trehalose crystal [2, 6]: - | Formation of trehalose crystal [2, 7]: - | Formation of trehalose crystal [2, 8]: - | Formation of trehalose crystal [2, 9]: - | Formation of trehalose crystal [2, 10]: - | Formation of trehalose crystal [2, 11]: - | Formation of trehalose crystal [2, 12]: - | Formation of trehalose crystal [2, 13]: + | Formation of trehalose crystal [2, 14]: - | Formation of trehalose crystal [2, 15]: - | Formation of trehalose crystal [2, 16]: - | Formation of trehalose crystal [2, 17]: - | Formation of trehalose crystal [2, 18]: - | Formation of trehalose crystal [2, 19]: - | Formation of trehalose crystal [2, 20]: - | Formation of trehalose crystal [2, 21]: - | Formation of trehalose crystal [2, 22]: + | Formation of trehalose crystal [2, 23]: + | Formation of trehalose crystal [2, 24]: - | Formation of trehalose crystal [2, 25]: + | Formation of trehalose crystal [2, 26]: + | Formation of trehalose crystal [2, 27]: - | Formation of trehalose crystal [2, 28]: + | Formation of trehalose crystal [2, 29]: + | Formation of trehalose crystal [2, 30]: - | Formation of trehalose crystal [2, 31]: + | Formation of trehalose crystal [2, 32]: + | Formation of trehalose crystal [2, 33]: + | Formation of trehalose crystal [2, 34]: + | Formation of trehalose crystal [2, 35]: + | Formation of trehalose crystal [2, 36]: + | Formation of trehalose crystal [2, 37]: + | Formation of trehalose crystal [2, 38]: + | Formation of trehalose crystal [2, 39]: + | Formation of trehalose crystal [2, 40]: + | Formation of trehalose crystal [2, 41]: + | Formation of trehalose crystal [2, 42]: + | Formation of trehalose crystal [2, 43]: + | Formation of trehalose crystal [2, 44]: + | Formation of trehalose crystal [2, 45]: + | Formation of trehalose crystal [2, 46]: + | Formation of trehalose crystal [2, 47]: + | Formation of trehalose crystal [2, 48]: + | Trehalose crystallization inhibitory effect (in words) [3]: specifically and effectively inhibited

OC[C@H]1O[C@H](O[C@H]2O[C@H](CO)[C@@H](O[C@H]3O[C@H](CO)[C@@H](O[C@H]4O[C@H](CO)[C@@H](O)[C@H](O)[C@H]4O)[C@H](O)[C@H]3O)[C@H](O)[C@H]2O)[C@H](O)[C@@H](O)[C@@H]1O [α-Maltosyltrehalose, α-maltosyltrehalose]
Amount of trehalose, times the water solubility, beyond which crystallization of trehalose was observed ([2]; coexisting diglucosyltrehalose): exceeds 2.8 times the water solubility | Trehalose crystallization inhibitory effect (in words) ([2]; listed as diglucosyltrehalose): satisfactory trehalose crystallization inhibitory effect; also recorded: stronger effect | Formation of trehalose crystal [2, 4]: - | Formation of trehalose crystal [2, 5]: - | Formation of trehalose crystal [2, 6]: - | Formation of trehalose crystal [2, 7]: - | Formation of trehalose crystal [2, 8]: - | Formation of trehalose crystal [2, 9]: - | Formation of trehalose crystal [2, 10]: - | Formation of trehalose crystal [2, 11]: - | Formation of trehalose crystal [2, 12]: - | Formation of trehalose crystal [2, 13]: - | Formation of trehalose crystal [2, 14]: - | Formation of trehalose crystal [2, 15]: - | Formation of trehalose crystal [2, 16]: - | Formation of trehalose crystal [2, 17]: - | Formation of trehalose crystal [2, 18]: - | Formation of trehalose crystal [2, 19]: - | Formation of trehalose crystal [2, 20]: - | Formation of trehalose crystal [2, 21]: - | Formation of trehalose crystal [2, 22]: + | Formation of trehalose crystal [2, 23]: - | Formation of trehalose crystal [2, 24]: - | Formation of trehalose crystal [2, 25]: + | Formation of trehalose crystal [2, 26]: - | Formation of trehalose crystal [2, 27]: - | Formation of trehalose crystal [2, 28]: - | Formation of trehalose crystal [2, 29]: - | Formation of trehalose crystal [2, 30]: - | Formation of trehalose crystal [2, 31]: + | Formation of trehalose crystal [2, 32]: + | Formation of trehalose crystal [2, 33]: - | Formation of trehalose crystal [2, 34]: + | Formation of trehalose crystal [2, 35]: + | Formation of trehalose crystal [2, 36]: - | Formation of trehalose crystal [2, 37]: + | Formation of trehalose crystal [2, 38]: - | Formation of trehalose crystal [2, 39]: - | Formation of trehalose crystal [2, 40]: + | Formation of trehalose crystal [2, 41]: + | Formation of trehalose crystal [2, 42]: + | Formation of trehalose crystal [2, 43]: + | Formation of trehalose crystal [2, 44]: + | Formation of trehalose crystal [2, 45]: + | Formation of trehalose crystal [2, 46]: + | Formation of trehalose crystal [2, 47]: + | Formation of trehalose crystal [2, 48]: + | Trehalose crystallization inhibitory effect (in words) [3]: specifically and effectively inhibited
